The target of test [1] is T1, aldolase (SEQ ID NO: 10), RhaD aldolase (Bacteroides thetaiotaomicron, UniProt Q8A1A0).
T1 construct: made in house
Kind of test: Screening of ketones as acceptors with DHAP as donor, DHAP disappearance assay plus mass spectrometry. The class given is biochemical. Conditions: for acceptor of the enzyme when DHAP is the donor: SEQ ID NO: 10; for DHAP disappearance (%): 10 eq of ketone, 8 μmol DHAP, CoCl2, pH 7.5, RT, 5 h, under Ar. As for the experimental part: Enzyme corresponding to SEQ ID No 10 was purified for deeper characterization and a scale up was performed to analyze the new branched sugars. This aldolase was tested with DHAP as donor and various ketones under argon conditions to avoid oxidation of DHAP and cobalt ion (CoCl2) to optimize the activity. Conversion of the various reactions was determined by assaying DHAP disappearance using triose-phosphate-isomerase coupled with ca-glycerophosphate dehydrogenase enzymes. In addition the products of those reactions were analyzed by mass spectrometry. When the data from the two systems are in agreement, the compound is considered to be substrate of the enzyme.
Prior to the reaction, all the solutions and solids were degased by bubbling or circulating Ar. Under an Ar atmosphere, 1 mg of aldolase (SEQ ID NO: 10, 6.5 U), 8 μmol of DHAP (123 μL of 65 mM solution), 8 μL CoCl2 (10 mM), 10 eq of electrophile (selected ketone) and water to reach 200 μL final volume were added in a vial. The pH was adjusted to 7.5. The reaction mixture was gently stirred at RT for 5 h. DHAP disappearance was followed spectrophotometrically. The aldolase was removed by filtration over ultra-centrifugal filter unit (Amicon, 10 kDa). The reaction medium was directly analyzed by mass spectrometry (liquid chromatography (Alliance 2695—Waters) coupled to high resolution mass spectrometry (Micromass Q-TOF—Waters)).

In test [2] the test system is SEQ ID: 23 (FucA). Briefly: LC/MS Orbitrap validation of products from 6 ketones, FucA enzyme. The class given is biochemical, Kyrpidia tusciae. The following applies: 5 to 10 eq of ketone, CoCl2, pH 7.3, 5 h at RT, LC/MS detection. As for the experimental part:
(§1) A mother solution was prepared by mixing DHAP (5.2 mL, 35 mM), CoCl2 (200 μL, 10 mM), 5 to 10 eq of ketone, adjusted to pH 7.3 and degased under Ar. In 10 vials containing each 4 mg of enzyme to screen (beforehand degased under Ar) were added 400 μL of the mother solution. The reactions were gently stirred for 5 h at RT. The aldolase was removed by filtration over ultra-centrifugal filter unit (Amicon, 10 kDa). The reaction medium was analyzed by mass spectrometry.
(§2) The detection of the compounds of interest was performed by LC/ESI-MS method using a Dionex TCC-3000RS chromatographic system (Thermo Fisher Scientific, Courtaboeuf, France) coupled to an ultra-high resolution Orbitrap Elite hybrid mass spectrometer ((Thermo Fisher Scientific, Courtaboeuf, France) equipped with a HESI source.
(§3) A Sequant ZICpHILIC column […], 2.1×100 mm (Merck, Darmstadt, Germany) thermostated at 15° C. was employed for HPLC separation. Mobile phase flow rate was set at 0.2 ml/min, and injection volume was 5 μl. Aqueous solution of 10 mM (NH4)2CO3 (at a pH of 9.9 adjusted by NH4OH) was used as phase A and acetonitrile was used as solvent B. The following gradient conditions were applied for elution: 1 min equilibration step at 80% of phase B; 7 min linear gradient from 80 to 40% of phase B; 3 min isocratic elution at 40% of B, return to 80% of phase B in 3 min and a reconditioning step of 8.5 min.
(§4) Mass and product ion spectra were recorded in the ESI negative ion mode. Ion spray (IS) was set at −4.5 kV and capillary temperature at 275° C. Sheath gas, auxiliary gas and sweep gas flow rates were set at 60, 10 and 0 arbitrary units, respectively. The mass resolution power of the detector was 60000.
(§5) Raw data were manually inspected using the Qual-browser module of Xcalibur version 2.2 (Thermo Fisher Scientific, Courtaboeuf, France) for enzymes from SEQ ID NO:1 to 20 and SEQ ID NO:23 for DHAP+dihydroxyacetone, and for SEQ ID NO:1 to 10 for the other couples of reagents.

In test [3] the test system is enzymes of SEQ ID NO:1-10 (RhaD). Briefly: LC/MS Orbitrap validation of products from 6 ketones, RhaD enzymes. Conditions: 5 to 10 eq of ketone, CoCl2, pH 7.3, 5 h at RT, LC/MS detection. The class given is biochemical. As for the experimental part: as §1, §2, §3, §4, §5
The subject of test [4] is RhaD aldolases of SEQ ID NO:1 to SEQ ID NO:21. Kind of test: Aldol reaction of DHAP with dihydroxyacetone (DHA), RhaD aldolases. The class given is biochemical. Conditions: 10 eq of DHA, CoCl2, pH 7.5, RT, 5 h. Here is the method: (§6) Aldolases were tested with DHAP as donor and DHA as acceptor. Cobalt ion (CoCl2) to was added to optimize the activity. Conversion of the reactions was determined by assaying DHAP disappearance using triose-phosphate-isomerase coupled with α-glycerophosphate dehydrogenase enzymes. In addition the products of those reactions were analyzed by mass spectrometry. When the data from the two systems are in agreement, DHA is considered to be substrate of the enzyme.
(§7) 1 mg of aldolase (RhaD, FucA or TagA), 8 μmol of DHAP (123 μL of 65 mM solution), 8 μL CoCl2 (10 mM), 10 eq of DHA and water to reach 200 μL final volume were added in a vial. The pH was adjusted to 7.5. The reaction mixture was gently stirred at RT for 5 h. DHAP disappearance was followed spectrophotometrically. The aldolase was removed by filtration over ultra-centrifugal filter unit (Amicon, 10 kDa). The reaction medium was directly analyzed by mass spectrometry (liquid chromatography (Alliance 2695—Waters) coupled to high resolution mass spectrometry (Micromass Q-TOF—Waters)).

Test [5] deals with L-fuculose-1-phosphate aldolase (FucA) of SEQ ID NO:22-23, and 26-34. Kind of test: Aldol reaction of DHAP with dihydroxyacetone (DHA), FucA aldolases. The class given is biochemical. Conditions: 10 eq of DHA, CoCl2, pH 7.5, RT, 5 h. As for the experimental part: as §6, §7
Test [6] concerns DHA aldolases (i.e. FSA of E. coli), deoc aldolase, class I DHAP aldolases and pyruvate aldolases. Kind of test: Aldol reaction of DHAP with DHA, aldolases not belonging to class II DHAP aldolases. The class given is biochemical. Conditions: data not shown.
Test [7] has as its target T2, L-tagatose 1.6 biP aldolase (TagA) of SEQ ID NO:35 (Escherichia coli, UniProt P0AB74).
T2 construct: made in house
Briefly: Aldol reaction of DHAP with dihydroxyacetone (DHA), TagA aldolase. The following applies: 10 eq of DHA, CoCl2, pH 7.5, RT, 5 h. The class given is biochemical. As for the experimental part: as §6, §7

Test [8] concerns the target RhaD of various microorganisms including E. coli (Escherichia coli, UniProt P32169). Kind of test: Substrate spectrum of RhaD aldolases with respect to ketones. The class given is biochemical.

Sequence of RhaD of various microorganisms including E. coli (P32169 whole entry): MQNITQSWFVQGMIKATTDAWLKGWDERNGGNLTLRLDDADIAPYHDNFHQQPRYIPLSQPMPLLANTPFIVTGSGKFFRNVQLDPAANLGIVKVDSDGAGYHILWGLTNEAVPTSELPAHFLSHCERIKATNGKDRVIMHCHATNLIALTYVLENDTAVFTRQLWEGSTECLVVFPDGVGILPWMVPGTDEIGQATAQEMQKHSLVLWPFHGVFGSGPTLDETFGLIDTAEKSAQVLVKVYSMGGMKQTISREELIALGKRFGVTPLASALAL
T1 sequence (Q8A1A0 whole entry, change not shown): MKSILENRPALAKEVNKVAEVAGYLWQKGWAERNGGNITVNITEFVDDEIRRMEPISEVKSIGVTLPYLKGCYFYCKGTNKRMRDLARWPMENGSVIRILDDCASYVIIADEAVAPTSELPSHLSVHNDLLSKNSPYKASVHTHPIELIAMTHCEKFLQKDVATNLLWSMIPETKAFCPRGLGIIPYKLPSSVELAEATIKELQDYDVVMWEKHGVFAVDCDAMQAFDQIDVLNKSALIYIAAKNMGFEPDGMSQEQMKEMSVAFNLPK
T2 sequence (P0AB74 whole entry): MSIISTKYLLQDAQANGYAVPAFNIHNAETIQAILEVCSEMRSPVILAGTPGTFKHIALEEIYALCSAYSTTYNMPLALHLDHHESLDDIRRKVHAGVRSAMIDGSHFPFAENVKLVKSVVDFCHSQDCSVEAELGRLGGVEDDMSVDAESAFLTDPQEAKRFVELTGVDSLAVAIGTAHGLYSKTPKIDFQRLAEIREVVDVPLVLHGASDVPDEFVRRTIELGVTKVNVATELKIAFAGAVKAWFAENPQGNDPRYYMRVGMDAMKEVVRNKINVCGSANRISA

Regarding `CC(=O)CCO` [4-hydroxybutan-2-one], the “acceptor of the enzyme when DHAP is the donor” value (shortened to “acceptor of the enzyme”) in test [1] was “not acceptors”.
`CC(=O)CCO` [drawing 99]: in test [1], the “DHAP disappearance (%)” value turned out to be 0%.
In the case of `O=C(O)C(=O)CO` [hydroxypyruvate], the “ability of the tested FucA to catalyze the reaction of DHAP with the ketone to form the expected product” value (from here on “ability of the tested FucA”) in test [2] is on record as “able to catalyze”. Also, the “DHAP disappearance (%)” value in test [1] is reported as 92%. For the same compound, the “ability of the tested RhaD to catalyze the reaction of DHAP with the ketone to form the expected product” value (from here on “ability of the tested RhaD”) in test [3] is listed as “able to catalyze”.
On to `CC(=O)C(=O)O`, for which the “DHAP disappearance (%)” value in test [1] amounted to 75%.
For the compound hydroxyacetone, the “ability of the tested FucA” value in test [2] is given as “able to catalyze”. Besides, the “DHAP disappearance (%)” value in test [1] was 95%. Besides, the “ability of the tested RhaD” value in test [3] is recorded as “able to catalyze”.
`CC(=O)C(C)=O` [butanedione]: the “ability of the tested FucA” value in test [2] is listed as “able to catalyze”. Further, the “DHAP disappearance (%)” value in test [1] was found to be 100%. In test [3], the “ability of the tested RhaD” value was “able to catalyze”.
With `O=C(CO)Cc1ccccc1`, in test [1], the “DHAP disappearance (%)” value is given as 71%.
For `O=C(CO)CO` [dihydroxyacetone], the entries for the “ability of the enzymes to catalyse the reaction between DHAP and DHA” value in test [4] and in test [5] were “able to catalyse” and “same results”, respectively. For the same compound, the “ability of the tested FucA” value in test [2] is “able to catalyze”. The “DHAP disappearance (%)” value in test [1] was determined as 100%. Further, in test [6], the “ability of the enzymes to catalyse the reaction between DHA and DHAP” value is “failed to catalyze”. Further, the “ability of the tested RhaD” value in test [3] is listed as “able to catalyze”. For the same compound, the “ability of the enzyme to catalyse the reaction between DHAP and DHA” value in test [7] is “same results”.
Take `O=C(CO)[C@@H](O)CO` [L-erythrulose]: in test [2], the “ability of the tested FucA” value is given as “able to catalyze”. Also, in test [1], the “DHAP disappearance (%)” value is 100%. In addition, the “ability of the tested RhaD” value in test [3] is “able to catalyze”.
For the compound `O=C(CCl)CCl`, the “DHAP disappearance (%)” value in test [1] is listed as 72%.
For the compound acetone, the “ability of RhaD to catalyze the reaction of DHAP with the ketone” value (from here on “ability of RhaD”) in test [8] was “unable to catalyze”. Moreover, in test [1], the “DHAP disappearance (%)” value was 0% and the “acceptor of the enzyme” value is “not acceptors”.
As to `CCC(=O)CO` [1-hydroxybutanone], in test [1], the “DHAP disappearance (%)” value is recorded as 84%.
With butanone, in test [8], the “ability of RhaD” value was “unable to catalyze”. For the same compound, in test [1], the “DHAP disappearance (%)” value came out at 0% and the “acceptor of the enzyme” value is “not acceptors”.
With `O=C1CCCCC1O` (stereo not drawn) [2-hydroxycyclohexanone], the “ability of the tested FucA” value in test [2] is “able to catalyze”. The “DHAP disappearance (%)” value in test [1] stood at 84%. Further, the “ability of the tested RhaD” value in test [3] is “able to catalyze”.
For `O=C1CCCC1` [cyclopentanone], the “ability of RhaD” value in test [8] is listed as “unable to catalyze”. Further, in test [1], the “DHAP disappearance (%)” value is recorded as 0% and the “acceptor of the enzyme” value was “not acceptors”.
As for `CC(=O)C(C)O` (stereo not drawn), the “DHAP disappearance (%)” value in test [1] was found to be 96%.
On the same count and under the same terms, then `CC(=O)CC(C)=O`, with 83%.

Values taken from patent US11466298B2, “Method for preparing phosphorylated keto polyols, derivatives thereof and uses thereof” (COMMISSARIAT A L'ENERGIE ATOMIQUE ET AUX ENERGIES …, priority 2017, dated 2022).
